# From PMC6421848 (European journal of medicinal chemistry, 2018)
# What was measured:
# [1] = test system: HeLaS3 cells; experiment: SRB antiproliferation assay, HeLaS3; conditions: read-out: IC50 HeLaS3, 72 h, mean ± SD of three experiments
# [2] = test system: HeLaS3 cells; experiment: Mitochondrial membrane potential assay, HeLaS3; format: cell-based, human; conditions: HeLaS3, 24 h treatment
# [3] = target: T1, NQO1 (Homo sapiens, UniProt P15559); experiment: NQO1 activity assay kit in treated HeLaS3 cells; conditions: HeLaS3, 24 h, serial concentrations
# [4] = test system: KB-vin cells; experiment: ROS generation, KB-vin; format: cell-based, human; conditions: 24 h treatment
# [5] = target: T1, NQO1; experiment: NQO1 activity assay kit in treated KB-vin cells; conditions: 24 h, serial concentrations
# [6] = test system: HeLaS3 cells; experiment: ROS generation, HeLaS3; format: cell-based, human; conditions: HeLaS3, 24 h treatment
# [7] = test system: KB-vin cells; experiment: Mitochondrial membrane potential assay, KB-vin; format: cell-based, human; conditions: 24 h treatment
# [8] = test system: HeLaS3 cells; experiment: Western blot of apoptotic proteins; format: cell-based, human; conditions: HeLaS3, 72 h
# [9] = test system: HeLaS3 cells; experiment: MTT proliferation assay, HeLaS3; format: cell-based, human; conditions: increasing doses, 72 h
# [10] = test system: HeLaS3 cells; experiment: NQO1-dependent cytotoxicity; conditions: HeLaS3, SRB, 72 h
# [11] = target: T1, NQO1; experiment: NQO1 inhibitory kinetic assay; format: biochemical
# [12] = test system: normal endometrial epithelial cells (EECs); experiment: MTT proliferation assay, normal endometrial epithelial cells; format: cell-based; conditions: increasing doses, 72 h
# [13] = test system: KB-vin cells; experiment: NQO1-dependent cytotoxicity; conditions: SRB, 72 h
# T1 sequence (P15559 whole entry): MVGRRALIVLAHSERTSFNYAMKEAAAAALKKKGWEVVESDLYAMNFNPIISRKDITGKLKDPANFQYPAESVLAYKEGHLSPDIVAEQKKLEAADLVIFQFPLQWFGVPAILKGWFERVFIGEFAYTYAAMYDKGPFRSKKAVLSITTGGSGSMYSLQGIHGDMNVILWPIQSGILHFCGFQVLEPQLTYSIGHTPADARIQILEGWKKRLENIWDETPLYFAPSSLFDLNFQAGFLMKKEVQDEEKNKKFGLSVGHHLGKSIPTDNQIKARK
Compound,IC50 [1] [µM],NQO1 activity after treatment [3],NQO1 activity after treatment [5],mitochondrial membrane potential [2],ROS production [4],ROS production [6],mitochondrial membrane potential [7],further results
"CN1CCN(c2ccc(NC3=CC(=O)c4ncccc4C3=O)cc2)CC1 [Compound 6d, 6-((4-(4-Methylpiperazin-1-yl)phenyl)amino)quinoline-5,8-dione]",,,,significantly decreased in a dose-dependent manner,increased dose-dependently,increased dose-dependently,significantly decreased in a dose-dependent manner,
"6-((4-([1,4’ -Bipiperidin]-1’ -yl)phenyl)amino)quinoline-5,8-dione [Compound 6f]",5.16,,,,,,,
"CN1CCN(c2ccc(NC3=CC(=O)c4cccnc4C3=O)cc2)CC1 [Compound 7d, 7-((4-(4-Methylpiperazin-1-yl)phenyl)amino)quinoline-5,8-dione]",,inhibited dose-dependently,inhibited dose-dependently,significantly decreased in a dose-dependent manner,increased dose-dependently,increased dose-dependently,significantly decreased in a dose-dependent manner,"cleavage of caspase-3 [8]: induced more cleavage of caspase-3 than the control group; levels of anti-apoptotic Bcl-2 expression ([8]; dose-dependent): reduced; relative levels of pro-apoptotic Bax expression ([8]; dose-dependent): dramatically increased; effect on HeLaS3 cells, same treatment regimen [9]: induced major HeLaS3 cell death; cell viability of compound-treated cells on addition of DIC and NAc [10]: significantly increased; mode of NQO1 inhibition ([11]; Lineweaver-Burk plots): competitive inhibitors; maximum rate (Vmax) ([11]; remained the same as inhibitor concentration increased): 11.03 ± 1.5 nmol/mg protein/20s; effect on survival of non-tumor EECs [12]: no significant effect; cell viability of compound-treated cells on addition of DIC and NAc [13]: significantly increased"

# Now from value to compound, other results behind:
IC50 [1] [µM],NQO1 activity after treatment [3],NQO1 activity after treatment [5],Compound,mitochondrial membrane potential [2],ROS production [4],ROS production [6],mitochondrial membrane potential [7],further results
5.07 ± 0.1,,,"7-((4-([1,4’ -Bipiperidin]-1’ -yl)phenyl)amino)quinoline-5,8-dione [Compound 7f]",,,,,
,inhibited dose-dependently,inhibited dose-dependently,"COC(=O)/C=C/c1cccc(CNC2=CC(=O)c3ncccc3C2=O)c1 [Compound 6h, (E)-Methyl 3-(3-(((5,8-dioxo-5,8-dihydroquinolin-6-yl)amino)methyl)phenyl)acrylate]",significantly decreased in a dose-dependent manner,increased dose-dependently,increased dose-dependently,significantly decreased in a dose-dependent manner,
,inhibited dose-dependently,inhibited dose-dependently,"O=C1C=C(NCCc2c[nH]c3ccccc23)C(=O)c2ncccc21 [Compound 7a, 7-((2-(1H-Indol-3-yl)ethyl)amino)quinoline-5,8-dione]",significantly decreased in a dose-dependent manner,increased dose-dependently,increased dose-dependently,significantly decreased in a dose-dependent manner,
